Reference: ChEMBL document CHEMBL1201862, “PubChem BioAssay data set” (2004)
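These data come from cells grown in 96-well plates and exposed to compound for 48 hours at five concentrations. The concentration for 50% growth inhibition is given as GI50.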 Activity calls are given as the source filed them. No stated cut-off is given here; in the data, active = GI50 up to about 1.1 µM and inactive = higher.

Columns and labels:
Test in all cases: inhibition of tumour cell growth, NCI panel, 48 h
[1] = test system: ACHN
[2] = test system: CAKI-1
[3] = test system: HCC 2998
[4] = test system: HCT-15
[5] = test system: HOP-62
[6] = test system: IGROV-1
[7] = test system: K562
[8] = test system: LOX IMVI
[9] = test system: MDA-MB-231
[10] = test system: Malme-3M
[11] = test system: NCI-H460
[12] = test system: NCI/ADR-RES
[13] = test system: PC-3
[14] = test system: RPMI-8226
[15] = test system: SK-MEL-2
[16] = test system: SK-MEL-5
[17] = test system: SN12C
[18] = test system: SW-620
[19] = test system: U-251
[20] = test system: UACC-257

Compound | GI50 [1] | GI50 [2] | GI50 [3] | GI50 [4] [µM] | GI50 [5] | GI50 [6] | GI50 [7] | GI50 [8] | GI50 [9] | GI50 [10] | GI50 [11] | GI50 [12] | GI50 [13] | GI50 [14] | GI50 [15] | GI50 [16] | GI50 [17] | GI50 [18] | GI50 [19] | GI50 [20]
NC(=S)NN=Cc1ccccc1OCc1cccc(COc2ccccc2C=NNC(N)=S)n1 | 20.6 µM (inactive) | > 100 µM (inactive) | > 100 µM (inactive) | > 61.2 | 6.56 µM (inactive) | 13.7 µM (inactive) | > 100 µM (inactive) | > 100 µM (inactive) | 6.92 µM (inactive) | > 54.3 µM (inactive) | > 58.6 µM (inactive) | 40.6 µM (inactive) | > 57.7 µM (inactive) | > 100 µM (inactive) | 6.89 µM (inactive) | > 100 µM (inactive) | > 79.3 µM (inactive) | > 96.4 µM (inactive) | 4.55 µM (inactive) | > 79.8 µM (inactive)
CC(C)NC(=O)OCc1c(COC(=O)NC(C)C)c(-c2cc[n+](COC(=O)C(C)C)cc2)n2c1CCC2 | 12.2 µM (inactive) | 20 µM (inactive) | > 100 µM (inactive) | > 100 | > 68.4 µM (inactive) | 30.1 µM (inactive) | > 100 µM (inactive) | > 50.7 µM (inactive) | > 100 µM (inactive) | > 100 µM (inactive) | 41.6 µM (inactive) | > 100 µM (inactive) | > 59.6 µM (inactive) | > 100 µM (inactive) | > 100 µM (inactive) | > 100 µM (inactive) | 62.1 µM (inactive) | > 100 µM (inactive) | > 100 µM (inactive) | > 100 µM (inactive)
COc1cc(N(CCC#N)CCC#N)ccc1C(/N=N/c1cccc(C)c1)=N\NC(=O)c1ccc(C)cc1 | 21.8 µM (inactive) | > 100 µM (inactive) | 79.3 µM (inactive) | > 100 | > 100 µM (inactive) | > 100 µM (inactive) | > 100 µM (inactive) | > 100 µM (inactive) | > 100 µM (inactive) | 43.5 µM (inactive) | 25.9 µM (inactive) | > 100 µM (inactive) | > 100 µM (inactive) | 35.7 µM (inactive) | > 100 µM (inactive) | > 100 µM (inactive) | > 100 µM (inactive) | > 100 µM (inactive) | 45.8 µM (inactive) | > 100 µM (inactive)
O=C(c1cc2ccccc2[nH]1)N1C2CCC1CN(CCOC(c1ccc(F)cc1)c1ccc(F)cc1)CC2 (stereo not given) | 95.1 µM (inactive) | 6.81 µM (inactive) | > 100 µM (inactive) | 3.24 | > 100 µM (inactive) | 2.26 µM (inactive) | 5.15 µM (inactive) | 9.48 µM (inactive) | 9.2 µM (inactive) | > 100 µM (inactive) | 4.48 µM (inactive) | > 100 µM (inactive) | 2.79 µM (inactive) | 9.2 µM (inactive) | 81.8 µM (inactive) | 5.77 µM (inactive) | 18.2 µM (inactive) | > 100 µM (inactive) | 3.99 µM (inactive) | 12.5 µM (inactive)
c1cc2nnc1SCCSCCSc1ccc(nn1)SCCSCCS2 | > 100 µM (inactive) | > 100 µM (inactive) | > 100 µM (inactive) | > 100 | 31 µM (inactive) | > 100 µM (inactive) | > 100 µM (inactive) | > 100 µM (inactive) | 40.6 µM (inactive) | > 100 µM (inactive) | > 100 µM (inactive) | > 100 µM (inactive) | > 100 µM (inactive) | > 100 µM (inactive) | > 100 µM (inactive) | > 100 µM (inactive) | > 100 µM (inactive) | > 100 µM (inactive) | > 100 µM (inactive) | > 100 µM (inactive)
CC(=O)O[C@H]1CC[C@@]2(C)C(=CC[C@@H]3[C@@H]2CC[C@]2(C)C(=N/O)/C(=C\c4ccccc4)C[C@@H]32)C1 | 23.6 µM (inactive) | 24.7 µM (inactive) | 11.9 µM (inactive) | 16.5 | 16.7 µM (inactive) | 44.2 µM (inactive) | 31.2 µM (inactive) | 9.14 µM (inactive) | 20.5 µM (inactive) | 4.14 µM (inactive) | 17.5 µM (inactive) | 7.08 µM (inactive) | 5.96 µM (inactive) | 33.7 µM (inactive) | 13 µM (inactive) | 2.08 µM (inactive) | 14.8 µM (inactive) | 20.9 µM (inactive) | 24.9 µM (inactive) | 6.52 µM (inactive)
COc1ccc(-n2c(C)nc3ccc(NC4OCC(OC(C)=O)C(OC(C)=O)C4OC(C)=O)cc3c2=O)cc1 (stereo not given) | > 100 µM (inactive) | > 100 µM (inactive) | 97.1 µM (inactive) | > 100 | > 100 µM (inactive) | > 100 µM (inactive) | > 100 µM (inactive) | > 100 µM (inactive) | > 100 µM (inactive) | > 100 µM (inactive) | > 100 µM (inactive) | > 100 µM (inactive) | > 100 µM (inactive) | 35.9 µM (inactive) | > 100 µM (inactive) | > 100 µM (inactive) | > 100 µM (inactive) | > 100 µM (inactive) | > 100 µM (inactive) | > 100 µM (inactive)
c1ccc(C(/C(=N/c2ccc(Cc3ccc(/N=C(\C(c4ccccc4)c4ccccc4)N4CC4)cc3)cc2)N2CC2)c2ccccc2)cc1 | 5.82 µM (inactive) | 6.95 µM (inactive) | 10.1 µM (inactive) | 10.1 | 12.8 µM (inactive) | 0.942 µM (active) | 2.33 µM (inactive) | 1.53 µM (inactive) | 12.2 µM (inactive) | 14.9 µM (inactive) | 1.78 µM (inactive) | 9.25 µM (inactive) | 3.83 µM (inactive) | 3.65 µM (inactive) | 7.01 µM (inactive) | 5.04 µM (inactive) | 14.3 µM (inactive) | 6.3 µM (inactive) | 12.7 µM (inactive) | 11.6 µM (inactive)
CCOC(=O)CC1(Cc2ccc(OCc3ccccc3)cc2)C(=O)OC(c2ccccc2)N1C(=O)c1ccccc1 (stereo not given) | > 100 µM (inactive) | > 100 µM (inactive) | 28 µM (inactive) | > 100 | > 100 µM (inactive) | > 100 µM (inactive) | > 100 µM (inactive) | > 100 µM (inactive) | 68.9 µM (inactive) | > 100 µM (inactive) | 21.5 µM (inactive) | > 100 µM (inactive) | > 100 µM (inactive) | > 100 µM (inactive) | > 100 µM (inactive) | > 100 µM (inactive) | > 100 µM (inactive) | > 100 µM (inactive) | > 100 µM (inactive) | > 100 µM (inactive)
COC(=O)NN(C(=O)OC)c1c(-c2ccccc2)nc(SC)n1N | > 100 µM (inactive) | > 100 µM (inactive) | > 100 µM (inactive) | > 100 | > 100 µM (inactive) | > 100 µM (inactive) | > 100 µM (inactive) | > 100 µM (inactive) | > 100 µM (inactive) | > 100 µM (inactive) | > 100 µM (inactive) | > 100 µM (inactive) | > 100 µM (inactive) | > 100 µM (inactive) | > 100 µM (inactive) | > 100 µM (inactive) | > 100 µM (inactive) | > 100 µM (inactive) | > 100 µM (inactive) | > 100 µM (inactive)
Cn1c2ccccc2c2[nH]c3ccccc3c(=O)c21 | > 100 µM (inactive) | > 100 µM (inactive) | > 100 µM (inactive) | > 100 | > 100 µM (inactive) | > 100 µM (inactive) | > 100 µM (inactive) | 31.8 µM (inactive) | > 100 µM (inactive) | > 100 µM (inactive) | > 100 µM (inactive) | > 100 µM (inactive) | > 100 µM (inactive) | > 100 µM (inactive) | > 100 µM (inactive) | 46.2 µM (inactive) | > 100 µM (inactive) | 88.3 µM (inactive) | > 100 µM (inactive) | > 100 µM (inactive)
O=c1[nH]nc(-c2ccccc2)n1/N=C/c1ccc([N+](=O)[O-])cc1 | 11.4 µM (inactive) | 12.3 µM (inactive) | > 45.4 µM (inactive) | > 100 | 11 µM (inactive) | > 58.7 µM (inactive) | > 100 µM (inactive) | 31.1 µM (inactive) | > 33.2 µM (inactive) | > 100 µM (inactive) | 22.9 µM (inactive) | 20.1 µM (inactive) | > 100 µM (inactive) | > 100 µM (inactive) | 19.1 µM (inactive) | > 100 µM (inactive) | > 62.1 µM (inactive) | > 100 µM (inactive) | 4.74 µM (inactive) | > 100 µM (inactive)
O=C(O)CCCCC1CCSS1 (stereo not drawn) [LIPOIC ACID, ALPHA] | > 100 µM (inactive) | > 100 µM (inactive) | 72.6 µM (inactive) | > 100 | > 100 µM (inactive) | > 100 µM (inactive) | > 100 µM (inactive) | > 100 µM (inactive) | > 100 µM (inactive) | 43.1 µM (inactive) | > 100 µM (inactive) | > 100 µM (inactive) | > 100 µM (inactive) | > 100 µM (inactive) | > 100 µM (inactive) | > 100 µM (inactive) | > 10 µM (inactive) | > 100 µM (inactive) | > 100 µM (inactive) | > 100 µM (inactive)
